This note sets out measurements from patent publication US9056843B2, “Trifluoromethyl-oxadiazole derivatives and their use in the treatment of disease” (NOVARTIS AG, priority 2011, dated 2015).

Assay type in all cases: biochemical
The target of test [1] is Human recombinant HDAC4 (Homo sapiens (Human), UniProt P56524). The test can be described thus: Test 2: HDAC4 assay (fluorogenic substrate, 5 μM acetyl-Gly-Ala-Lys(ε-trifluoroacetyl)-AMC). As to conditions: Test 2 (values without asterisk). Here is the method:
Test 2: HDAC4 Assay Description
(§1) Control wells with HDAC4 only (positive control) and without HDAC4 (negative control) were included on the microplate. Bovine trypsin (4.5 μl of a 300 nM solution) was added and the plate incubated for additional 15 minutes at room temperature. The plate was placed in a fluorescence microplate reader, and read at an excitation wavelength of 360 nm and an emission wavelength of 450 nm with a 10 nm bandpath. Fluorescence values for all wells containing HDAC4 (positive control and wells with test compound) were corrected by subtracting negative control fluorescence values, and IC50 values were calculated by fitting the dose-response curves to a 4-parameter logistic function.

Test [2] concerns the target Human recombinant full length HDAC6 (Homo sapiens (Human), UniProt Q9UBN7). The test can be described thus: Test 4: HDAC6 assay. The conditions noted are these: Test 4; substrate 5 μM acetyl-Gly-Ala-Lys(acetyl)-AMC. Here is the method: as §1
Test 4: HDAC6 Assay Description
A similar assay procedure as described in Test 2 was used for HDAC6. Human recombinant full length HDAC6 expressed in a baculovirus expression system was purchased from BPS BioSciences (San Diego, Calif., U.S.A.). The substrate used in the […] assay was 5 μM of acetyl-Gly-Ala-Lys(acetyl)-AMC.

Test [3] has as its target Human recombinant full length HDAC1 (Homo sapiens (Human), UniProt Q13547). The test can be described thus: Test 3: HDAC1 assay. The conditions noted are these: substrate 5 μM acetyl-Gly-Ala-Lys(acetyl)-AMC. Here is the method: as §1
Test 3: HDAC1 Assay Description
A similar assay procedure as described in Test 2 was used for HDAC1. Human recombinant full length HDAC1 expressed in a baculovirus expression system was purchased from BPS BioSciences (San Diego, Calif., U.S.A.). The substrate used in the […] assay was 5 μM of acetyl-Gly-Ala-Lys(acetyl)-AMC.

Chain of Human recombinant HDAC4 (P56524 2-1084): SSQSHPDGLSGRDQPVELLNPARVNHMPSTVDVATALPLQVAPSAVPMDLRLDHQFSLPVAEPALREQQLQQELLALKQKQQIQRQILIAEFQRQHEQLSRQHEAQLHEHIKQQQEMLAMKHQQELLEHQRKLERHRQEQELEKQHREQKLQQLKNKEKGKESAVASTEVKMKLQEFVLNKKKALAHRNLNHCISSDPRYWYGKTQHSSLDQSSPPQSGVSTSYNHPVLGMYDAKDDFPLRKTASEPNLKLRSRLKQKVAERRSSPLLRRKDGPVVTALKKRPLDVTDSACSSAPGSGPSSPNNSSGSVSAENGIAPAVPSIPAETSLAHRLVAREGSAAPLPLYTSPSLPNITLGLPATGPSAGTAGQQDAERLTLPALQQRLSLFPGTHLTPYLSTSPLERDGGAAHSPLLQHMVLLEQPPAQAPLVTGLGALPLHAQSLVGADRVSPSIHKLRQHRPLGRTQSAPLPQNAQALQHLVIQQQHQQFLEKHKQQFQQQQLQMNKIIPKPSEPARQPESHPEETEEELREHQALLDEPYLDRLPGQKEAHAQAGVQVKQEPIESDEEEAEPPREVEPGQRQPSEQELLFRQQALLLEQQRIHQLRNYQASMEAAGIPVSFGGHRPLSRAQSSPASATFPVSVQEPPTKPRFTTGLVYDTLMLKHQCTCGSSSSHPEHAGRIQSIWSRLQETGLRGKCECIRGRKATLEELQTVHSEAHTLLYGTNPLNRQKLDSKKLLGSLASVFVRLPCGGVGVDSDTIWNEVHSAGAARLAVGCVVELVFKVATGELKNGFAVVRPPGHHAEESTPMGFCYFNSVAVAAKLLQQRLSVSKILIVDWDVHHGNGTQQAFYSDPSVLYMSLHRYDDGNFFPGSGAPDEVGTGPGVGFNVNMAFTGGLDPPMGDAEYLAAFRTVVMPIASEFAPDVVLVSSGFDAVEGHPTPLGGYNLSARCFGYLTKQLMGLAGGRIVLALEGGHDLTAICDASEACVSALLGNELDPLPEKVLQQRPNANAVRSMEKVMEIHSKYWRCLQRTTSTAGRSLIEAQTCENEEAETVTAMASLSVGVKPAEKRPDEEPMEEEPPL
Chain of Human recombinant full length HDAC6 (Q9UBN7 whole entry): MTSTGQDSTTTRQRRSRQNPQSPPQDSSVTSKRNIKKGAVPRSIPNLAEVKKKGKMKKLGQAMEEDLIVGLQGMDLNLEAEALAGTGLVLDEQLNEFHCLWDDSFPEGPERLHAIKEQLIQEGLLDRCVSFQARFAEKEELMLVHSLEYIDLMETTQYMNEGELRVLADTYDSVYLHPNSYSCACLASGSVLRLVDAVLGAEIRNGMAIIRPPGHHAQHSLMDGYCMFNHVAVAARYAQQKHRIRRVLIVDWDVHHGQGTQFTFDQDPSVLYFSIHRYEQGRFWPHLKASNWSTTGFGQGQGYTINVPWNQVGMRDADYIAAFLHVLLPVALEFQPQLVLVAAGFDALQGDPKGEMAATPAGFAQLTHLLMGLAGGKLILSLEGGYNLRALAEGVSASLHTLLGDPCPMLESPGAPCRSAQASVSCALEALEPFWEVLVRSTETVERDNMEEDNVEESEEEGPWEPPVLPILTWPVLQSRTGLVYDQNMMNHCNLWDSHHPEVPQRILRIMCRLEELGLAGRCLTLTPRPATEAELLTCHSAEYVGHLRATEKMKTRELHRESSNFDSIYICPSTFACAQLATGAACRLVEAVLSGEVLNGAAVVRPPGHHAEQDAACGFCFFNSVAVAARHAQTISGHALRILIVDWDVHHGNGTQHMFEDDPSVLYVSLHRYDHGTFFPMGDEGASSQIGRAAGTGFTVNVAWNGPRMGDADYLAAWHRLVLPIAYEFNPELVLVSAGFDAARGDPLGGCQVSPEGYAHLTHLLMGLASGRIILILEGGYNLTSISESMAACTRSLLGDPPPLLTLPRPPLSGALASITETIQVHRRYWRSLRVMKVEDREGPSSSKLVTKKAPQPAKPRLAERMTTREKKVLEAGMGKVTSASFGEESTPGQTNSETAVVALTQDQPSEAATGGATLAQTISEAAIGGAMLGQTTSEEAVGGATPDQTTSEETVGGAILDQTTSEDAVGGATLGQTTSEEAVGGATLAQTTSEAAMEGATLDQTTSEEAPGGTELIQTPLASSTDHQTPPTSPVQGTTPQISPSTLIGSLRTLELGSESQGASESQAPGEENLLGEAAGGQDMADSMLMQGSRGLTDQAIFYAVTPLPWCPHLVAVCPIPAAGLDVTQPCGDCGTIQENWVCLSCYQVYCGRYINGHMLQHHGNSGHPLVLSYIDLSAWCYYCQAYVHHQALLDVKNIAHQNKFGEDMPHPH
Chain of Human recombinant full length HDAC1 (Q13547 whole entry): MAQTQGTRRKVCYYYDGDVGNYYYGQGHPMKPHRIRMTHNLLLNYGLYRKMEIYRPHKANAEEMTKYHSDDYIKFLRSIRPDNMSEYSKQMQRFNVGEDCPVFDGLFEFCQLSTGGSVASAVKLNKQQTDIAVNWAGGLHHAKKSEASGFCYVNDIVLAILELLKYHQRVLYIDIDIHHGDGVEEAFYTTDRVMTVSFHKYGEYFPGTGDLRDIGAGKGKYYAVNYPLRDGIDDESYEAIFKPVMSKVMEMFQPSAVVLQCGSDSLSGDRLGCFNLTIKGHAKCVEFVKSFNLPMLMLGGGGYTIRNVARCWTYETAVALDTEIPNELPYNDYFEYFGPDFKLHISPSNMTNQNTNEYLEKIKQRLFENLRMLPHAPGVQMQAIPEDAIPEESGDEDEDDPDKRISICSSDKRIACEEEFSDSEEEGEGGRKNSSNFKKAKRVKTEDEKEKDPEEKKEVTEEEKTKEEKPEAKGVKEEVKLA

In general, IC50 refers to the concentration needed to halve the response being measured. Turning to `O=C(c1ccc(-c2noc(C(F)(F)F)n2)cc1)N1CCC(O)C1` (stereo not drawn) [Example 54, (3-hydroxypyrrolidin-1-yl)(4-(5-(trifluoromethyl)-1,2,4-oxadiazol-3-yl)phenvyl)methanone], the figures for the IC50 in test [1], in test [2] and in test [3] were 2 µM, above 10 µM and above 10 µM, respectively.

On to `CCCN(C)C[C@@H](C)NC(=O)c1ccc(-c2noc(C(F)(F)F)n2)cc1` [Example 139, (R)—N-(1-(methyl(propyl)amino)propan-2-yl)-4-(5-(trifluoromethyl)-1,2,4-oxadiazol-3-yl)benzamide], for which the IC50 in test [1] was 0.001 µM; in test [2], 9.6 µM; in test [3] it was 4 µM.

With `C[C@@H](CN(C)C)NC(=O)c1ccc(-c2noc(C(F)(F)F)n2)cc1` [Example 82, (S)—N-(1-(dimethylamino)propan-2-yl)-4-(5-(trifluoromethyl)-1,2,4-oxadiazol-3-yl)benzamide], the half-maximal inhibitory concentration (IC50) is 0.12 µM in test [1], above 10 µM in test [2] and above 10 µM in test [3].

Turning to `CN(C)CCCN(C)S(=O)(=O)c1ccc(-c2noc(C(F)(F)F)n2)cc1` [Example 112, N-(3-(dimethylamino)propyl)-N-methyl-4-(5-(trifluoromethyl)-1,2,4-oxadiazol-3-yl)benzenesulfonamide], the values for the IC50 in test [1], in test [2] and in test [3] were 0.82 µM, 9.1 µM and above 10 µM, respectively.

With `CC(C)NC(=O)c1ccc(-c2noc(C(F)(F)F)n2)cc1` [Example 20, N-isopropyl-4-(5-(trifluoromethyl)-1,2,4-oxadiazol-3-yl)benzamide], the values for the IC50 in test [1], in test [2] and in test [3] were 1 µM, above 10 µM and above 10 µM, respectively.

For `CC(C)(C)OC(=O)N1CCN(C(=O)c2ccc(-c3noc(C(F)(F)F)n3)cc2)CC1` [Example 55, Tert-butyl 4-(4-(5-(trifluoromethyl)-1,2,4-oxadiazol-3-yl)benzoyl)piperazine-1-carboxylate], the IC50 in test [1] is 2.8 µM; in test [2] it was above 10 µM; in test [3] it was above 10 µM.

`CN(C)CCCNS(=O)(=O)c1ccc(-c2noc(C(F)(F)F)n2)cc1` [Example 113, N-(3-(dimethylamino)propyl)-4-(5-(trifluoromethyl)-1,2,4-oxadiazol-3-yl)benzenesulfonamide]: the figures for the IC50 in test [1], in test [2] and in test [3] were 0.3 µM, 6.2 µM and above 10 µM, respectively.

As for `CC(C)(C)OC(=O)NC1CCCCC1NC(=O)c1ccc(-c2noc(C(F)(F)F)n2)cc1` (stereo not drawn) [Example 60, tert-butyl (2-(4-(5-(trifluoromethyl)-1,2,4-oxadiazol-3-yl)benzamido)cyclohexyl)carbamate], the IC50 in test [1] was 2.5 µM; in test [2], 2.2 µM; in test [3], above 10 µM.

On to `CNCCNC(=O)c1ccc(-c2noc(C(F)(F)F)n2)cc1` [Example 157, N-(2-(methylamino)ethyl)-4-(5-(trifluoromethyl)-1,2,4-oxadiazol-3-yl)benzamide], for which the IC50 in test [1] stood at 0.04 µM; in test [2] it was 3.4 µM; in test [3], 6.1 µM.

As to `O=C(NCCc1ccccc1)c1ccc(-c2noc(C(F)(F)F)n2)cc1` [Example 45, N-phenethyl-4-(5-(trifluoromethyl)-1,2,4-oxadiazol-3-yl)benzamide], the IC50 in test [1] is 4.2 µM; in test [2], above 10 µM; in test [3] it was above 10 µM.

For the compound `CN(C)CCN(C)S(=O)(=O)c1ccc(-c2noc(C(F)(F)F)n2)cc1` [Example 99, N-(2-(dimethylamino)ethyl)-N-methyl-4-(5-(trifluoromethyl)-1,2,4-oxadiazol-3-yl)benzenesulfonamide], the IC50 in test [1] was 1.35 µM; in test [2], 9.9 µM; in test [3] it was above 10 µM.

In the case of `CCNC(=O)c1ccc(-c2noc(C(F)(F)F)n2)cc1` [Example 12, N-ethyl-4-(5-(trifluoromethyl)-1,2,4-oxadiazol-3-yl)benzamide], the half-inhibitory concentration (IC50) is 0.43 µM in test [1], 4.1 µM in test [2] and above 10 µM in test [3].

Turning to `C[C@H](CN1CCOCC1)NC(=O)c1ccc(-c2noc(C(F)(F)F)n2)cc1` [Example 147, (R)—N-(1-morpholinopropan-2-yl)-4-(5-(trifluoromethyl)-1,2,4-oxadiazol-3-yl)benzamide], the half-maximal inhibitory concentration (IC50) in test [1] was 0.3 µM; in test [2] it was 6.7 µM; in test [3] it was above 10 µM.

Take `C[C@H](CO)NC(=O)c1ccc(-c2noc(C(F)(F)F)n2)cc1` [Example 28, (R)—N-(1-hydroxyypropan-2-yl)-4-(5-(trifluoromethyl)-1,2,4-oxadiazol-3-yl)benzamide]: the concentration for half-maximal inhibition (IC50) in test [1] was 0.35 µM; in test [2] it was 7.7 µM; in test [3] it was above 10 µM.

As for `CN(CCO)C(=O)c1ccc(-c2noc(C(F)(F)F)n2)cc1` [Example 15, N-(2-hydroxyethyl)-N-methyl-4-(5-(trifluoromethyl)-1,2,4-oxadiazol-3-yl)benzamide], the IC50 was 0.99 µM in test [1], above 10 µM in test [2] and above 10 µM in test [3].

As for `CC(C)(C)c1cc(NC(=O)c2ccc(-c3noc(C(F)(F)F)n3)cc2)ccn1` [Example 69, N-(2-(tert-butyl)pyridin-4-yl)-4-(5-(trifluoromethyl)-1,2,4-oxadiazol-3-yl)benzamide], the IC50 in test [1] is 0.29 µM; in test [2] it was 6.8 µM; in test [3], above 10 µM.

For the compound `O=C(c1ccc(-c2noc(C(F)(F)F)n2)cc1)N1CCC(Cc2ccccc2)CC1` [Example 43, (4-benzylpiperidin-1-yl)(4-(5-(trifluoromethyl)-1,2,4-oxadiazol-3-yl)phenvyl)methanone], the IC50 in test [1] is 0.29 µM; in test [2] it was above 10 µM; in test [3], above 10 µM.

In the case of `O=S(=O)(Nc1cccc(Cl)c1)c1ccc(-c2noc(C(F)(F)F)n2)cc1` [Example 107, N-(3-chlorophenyl)-4-(5-(trifluoromethyl)-1,2,4-oxadiazol-3-yl)benzenesulfonamide], the figures for the IC50 in test [1], in test [2] and in test [3] were 0.79 µM, 0.46 µM and 6.2 µM, respectively.

As for `C[C@H](CN1CCCC1)NC(=O)c1ccc(-c2noc(C(F)(F)F)n2)cc1F` [Example 128, (R)-2-fluoro-N-(1-(pyrrolidin-1-yl)propan-2-yl)-4-(5-(trifluoromethyl)-1,2,4-oxadiazol-3-yl)benzamide], the half-inhibitory concentration (IC50) in test [1] is 0.026 µM; in test [2] it was 4.5 µM; in test [3], above 10 µM.

With `O=C(N[C@@H]1CCNC1)c1ccc(-c2noc(C(F)(F)F)n2)cc1` [Example 86, (R)—N-(pyyrrolidin-3-yl)-4-(5-(trifluoromethyl)-1,2,4-oxadiazol-3-yl)benzamide], the half-inhibitory concentration (IC50) in test [1] was 0.026 µM; in test [2] it was above 10 µM; in test [3] it was above 10 µM.

With `O=C(NCc1ccccc1)c1ccc(-c2noc(C(F)(F)F)n2)cc1` [Example 46, N-benzyl-4-(5-(trifluoromethyl)-1,2,4-oxadiazol-3-yl)benzamide], the IC50 in test [1] is 0.78 µM; in test [2], 3.3 µM; in test [3], above 10 µM.

`CN(C)C1CCN(C(=O)c2ccc(-c3noc(C(F)(F)F)n3)cc2)CC1` [Example 39, (4-(dimethylamino)piperidin-1-yl)(4-(5-(trifluoromethyl)-1,2,4-oxadiazol-3-yl)phenyl)methanone]: the 50% inhibitory concentration (IC50) in test [1] is 1.2 µM; in test [2], above 10 µM; in test [3], above 10 µM.

For `O=C(NCC1CCCCN1)c1ccc(-c2noc(C(F)(F)F)n2)cc1` (stereo not drawn) [Example 78, N-(piperidin-2-ylmethyl)-4-(5-(trifluoromethyl)-1,2,4-oxadiazol-3-yl)benzamide], the figures for the IC50 in test [1], in test [2] and in test [3] were 0.03 µM, 7 µM and above 10 µM, respectively.

Take `O=C(NC1CCCCC1)c1ccc(-c2noc(C(F)(F)F)n2)cc1` [Example 34, N-cyclohexyl-4-(5-(trifluoromethyl)-1,2,4-oxadiazol-3-yl)benzamide]: the IC50 in test [1] was 0.75 µM; in test [2], above 10 µM; in test [3], above 10 µM.

With `CC(C)C[C@H](CN(C)C)NC(=O)c1ccc(-c2noc(C(F)(F)F)n2)cc1` [Example 85, (R)—N-(1-(dimethylamino)-4-methylpentan-2-yl)-4-(5-(trifluoromethyl)-1,2,4-oxadiazol-3-yl)benzamide], the half-maximal inhibitory concentration (IC50) in test [1] was 0.048 µM; in test [2], above 10 µM; in test [3], above 10 µM.

Take `CN1CCN(C(=O)c2ccc(-c3noc(C(F)(F)F)n3)cc2)CC1` [Example 36, (4-methylpiperazin-1-yl)(4-(5-(trifluoromethyl)-1,2,4-oxadiazol-3-yl)phenvyl)methanone]: the IC50 in test [1] was 2.7 µM; in test [2] it was above 10 µM; in test [3] it was above 10 µM.

On to `O=C(NCc1ccc(CN2CCOCC2)cc1)c1ccc(-c2noc(C(F)(F)F)n2)cc1` [Example 44, N-(4-(morpholinomethyl)benzyl)-4-(5-(trifluoromethyl)-1,2,4-oxadiazol-3-yl)benzamide], for which the half-maximal inhibitory concentration (IC50) in test [1] is 0.38 µM; in test [2] it was 5.7 µM; in test [3], above 10 µM.
